The source of these data is patent US8084470B2, “Substituted nicotinamide compounds and uses thereof” (Gruenenthal GmbH, priority 2007, dated 2011).

For experiment [1], the target named is T1, hKCNQ2/3 (Homo sapiens, UniProt O43525+O43526). Nature of the experiment: Fluorescence assay using a voltage sensitive dye. Format: cell-based. The arrangement: expressed in transfected cells; host or cells: CHO-K1. On the procedure: Biological Data Fluorescence Assay Using a Voltage Sensitive Dye
Human CHO-K1 cells expressing KCNQ2/3 channels are cultivated adherently at 37° C., 5% CO2 and 95% humidity in cell culture bottles (e.g. 80 cm^2 TC flasks, Nunc) with DMEM-high glucose (Sigma Aldrich, D7777) including 10% FCS (PAN Biotech, e.g. 3302-P270521) or alternatively with MEM Alpha Medium (1×, liquid, Invitrogen, #22571), 10% fetal calf serum (FCS) (Invitrogen, #10270-106, heat-inactivated) and the necessary selection antibiotics.
Before being distributed for the measurements, the cells are washed with a 1×DPBS buffer without Ca^2+/Mg^2+ (e.g. Invitrogen, #14190-094) and detached from the bottom of the culture vessel by means of Accutase (PAA Laboratories, #L11-007) (incubation with Accutase for 15 min at 37° C.). The cell count then present is determined using a CASY™ cell counter (TCC model, Schärfe System) in order subsequently to apply, according to density optimization for the individual cell line, 20,000-30,000 cells/well/100 μl of the described nutrient medium to 96-well measuring plates of the Corning™ CellBIND™ type (Flat Clear Bottom Black Polystyrene Microplates, #3340). Incubation is then carried out for one hour at room temperature, without gassing or adjusting the humidity, followed by incubation for 24 hours at 37° C., 5% CO2 and 95% humidity.
The voltage-sensitive fluorescent dye from the Membrane Potential Assay Kit (Red™ Bulk format part R8123 for FLIPR, MDS Analytical Technologies™) is prepared by dissolving the contents of a vessel Membrane Potential Assay Kit Red Component A in 200 ml of extracellular buffer (ES buffer, 120 mM NaCl, 1 mM KCl, 10 mM HEPES, 2 mM CaCl2, 2 mM MgCl2, 10 mM glucose; pH 7.4). After removal of the nutrient medium, the cells are washed with 200 μl of ES buffer, then covered with a layer of 100 μl of the dye solution prepared above and incubated for 45 min at room temperature with the exclusion of light.
The fluorescence measurements are carried out with a BMG Labtech FLUOstar™ or BMG Labtech NOVOstar™ or BMG Labtech POLARstar™ instrument (525 nm excitation, 560 nm emission, Bottom Read mode). After incubation of the dye, 50 μl of the test substances in the desired concentrations, or 50 μl of ES buffer for control purposes, are introduced into separate cavities of the measuring plate and incubated for 30 min at room temperature while being shielded from light. The fluorescence intensity of the dye is then measured for 5 min and the fluorescence value F1 of each well is thus determined at a given, constant time. 15 μL of a 100 mM KCl solution ([…]) are then added to each well. The change in fluorescence is subsequently measured until all the relevant measured values have been obtained (mainly 5-30 min). At a given time after KCl application, a fluorescence value F2 is determined, in this case at the time of the fluorescence peak.
For calculation, the fluorescence intensity F2 is compared with the fluorescence intensity F1, and the agonistic activity of the target compound on the potassium channel is determined therefrom. F2 and F1 are calculated as follows:
[formula] In order to determine whether a substance has an agonistic activity,
[formula] for example, can be compared with
[formula] of control cells.
[formula] is determined by adding to the reaction batch only the buffer solution instead of the substance to be tested, determining the value F1K of the fluorescence intensity, adding the potassium ions as described above and measuring a value F2K of the fluorescence intensity. Then F2K and F1K are calculated as follows:
[formula] A substance has an agonistic activity on the potassium channel when
[formula] is greater than
[formula] Independently of the comparison of
[formula] it is also possible to conclude that a target compound has agonistic activity if an increase in
[formula] is to be observed as the dosage of the target compound increases. […]

Experiment [2] deals with T1, hKCNQ2/3. Nature of the experiment: Voltage clamp (patch-clamp) measurements. Format: cell-based. The arrangement: expressed in transfected cells; host or cells: CHO-K1 (stably transfected). As to conditions: for MAN rel eff @ 10 μm [RG = 1]: test substance 10 μM at −40 mV, increase in current standardized to retigabine (10 μM) effect = 1. As for the experimental part:
Voltage Clamp Measurements
In order to confirm a KCNQ2/3-agonistic action of the substances electrophysiologically, patch-clamp measurements (Hamill et al., 1981) were carried out in voltage clamp mode on a stably transfected hKCNQ2/3 CHO-K1 cell line. After formation of the gigaseal, the cells were first clamped at a holding potential of −60 mV. Thereafter, depolarizing voltage jumps were applied up to a potential of +20 mV (increment: 20 mV, duration: 1 second) in order to confirm the functional expression of KCNQ2/3-typical currents. The testing of the substances was carried out at a potential of −40 mV. The increase in current induced by retigabine (10 μM) at −40 mV was first recorded as a positive control on each cell. After complete washing out of the retigabine effect (duration: 80 s), the test substance (10 μM) was applied. The increase in current induced by the test substance was standardized to the retigabine effect and indicated as the relative efficacy (see below). Hamill O P, Marty A, Neher E, Sakmann B, Sigworth F J.: Improved patch-clamp techniques for high-resolution current recording from cells and cell-free membrane patches. Pflugers Arch. 1981 August; 391(2):85-100. Voltage-clamp measurements were carried out only for selected compounds: […]
(In patch-clamp work, channel activity is measured electrically.)

Experiment [3] relates to male rats (Sprague-Dawley). Nature of the experiment: Formalin test, rat (second phase). Conditions: pain rate vs vehicle control, late phase. The format is in vivo. As for the experimental part: The investigations to determine the antinociceptive activity of the compounds were carried out in the formalin test on male rats (Sprague-Dawley, 150-170 g).
In the formalin test, a distinction is made between the first (early) phase (0-15 min after formalin injection) and the second (late) phase (15-60 min after formalin injection) (D. Dubuisson, S. G. Dennis, Pain 4, 161-174 (1977)). The early phase, as a direct reaction to the formalin injection, represents a model for acute pain, while the late phase is regarded as a model for persistent (chronic) pain (T. J. Coderre, J. Katz, A. L. Vaccarino, R. Meizack, Pain, Vol. 52, p. 259, 1993).
The compounds according to the invention were investigated in the second phase of the formalin test in order to obtain information about the activity of substances in the case of chronic/inflammatory pain.
A nociceptive reaction was induced in freely mobile test animals by means of a single subcutaneous formalin injection (50 μl, 5% strength) into the dorsal side of the right rear paw, the reaction manifesting itself in the following behaviour parameters: lifting and holding of the affected paw (score 1), shaking or twitching (score 2), licking and biting (score 3). The differing behaviors induced by the formalin injection were detected continuously by observation of the animals in the late phase of the formalin test and were weighted differently in an evaluation. Normal behavior, in which the animal puts its weight on all four paws equally, was recorded as score 0. The time of administration before the formalin injection was chosen in dependence on the mode of administration of the compounds according to the invention (intraperitoneal: 15 min, intravenous: 5 min). After injection of substances that have antinociceptive activity in the formalin test, the described behaviours (score 1-3) of the animals are reduced or even eliminated. […] The nociceptive behaviour was calculated as the so-called pain rate (PR). […] Based on the PR calculations, the activity of the substance was determined as the change compared with the control in percent.

The test system of experiment [4] is rat. Nature of the experiment: Chung test on the rat. Format: in vivo. As to conditions: iv, i.v. administration. From the text: In addition, Example 89 was investigated in the Chung test on the rat.

By EC50 is commonly meant the midpoint of the concentration-response curve. In experiment [1], `O=C(NCc1ccccn1)c1cccnc1SCCS(=O)(=O)c1cccc(C(F)(F)F)c1` [Example 90, N-(pyridin-2-ylmethyl)-2-(2-(3-(trifluoromethyl)phenylsulfonyl)ethylthio)-nicotinamide] yielded an EC50 of 2.49 µM. The “MAN rel eff @ 10 μm [RG = 1]” value in experiment [2] is on record as 0.79.

`O=C(NCc1cccs1)c1cccnc1SCCSc1cccc(C(F)(F)F)c1` [Example 73, N-(thiophen-2-ylmethyl)-2-(2-(3-(trifluoromethyl)phenylthio)ethylthio)-nicotinamide]: the Change in % in experiment [3] (1 mg/kg i.v.) is listed as −29.9%.

In turn, `Cc1ccc(CNC(=O)c2cccnc2SCCS(=O)(=O)c2ccccc2)o1` [Example 61, N-(5-methylfuran-2-ylmethyl)-2-(2-(phenylsulfonyl)ethylthio)nicotinamide] gave a 50% effective concentration (EC50) in experiment [1] of 3.47 µM. The “MAN rel eff @ 10 μm [RG = 1]” value in experiment [2] is 0.81.

Broadly, the ED50 is the dose that gives a 50% effect, or the effect in half of the subjects. A low value points to an effect at a small dose. Consider `O=C(NCc1cccs1)c1cccnc1SCCS(=O)(=O)c1ccccc1` [Example 89, 2-(2-(phenylsulfonyl)ethylthio)-N-(thiophen-2-ylmethyl)nicotinamide], for which the 50% effective concentration (EC50) stood at 2.28 µM in experiment [1] and 1.01 µM in experiment [2] (patch-clamp, hKCNQ2/3 CHO-K1 cell line, read-out: MAN EC50). In experiment [4], this molecule yielded an ED50 of 6.3 mg/kg. In experiment [3] (6.81 mg/kg i.v.), the Change in % is given as −74.2%.

Turning to `Cc1cccc(CNC(=O)c2cccnc2SCCS(=O)(=O)c2ccccc2)c1` [Example 65, 2-(2-(phenylsulfonyl)ethylthio)-N-(3-tolylmethyl)nicotinamide], the midpoint of the response in experiment [1], the EC50, lay at 0.58 µM. The “MAN rel eff @ 10 μm [RG = 1]” value in experiment [2] is recorded as 0.4.

In experiment [1], `O=C(NCCC1CCCCC1)c1cccnc1SCCS(=O)(=O)c1ccccc1` [Example 58, N-(2-cyclohexylethyl)-2-(2-(phenylsulfonyl)ethylthio)nicotinamide] gave a 50% effective concentration (EC50) of 1.18 µM. The “MAN rel eff @ 10 μm [RG = 1]” value in experiment [2] stood at 0.47.

The molecule `O=C(NCC1CCCCC1)c1cccnc1SCCS(=O)(=O)c1ccccc1` [Example 56, N-(cyclohexylmethyl)-2-(2-(phenylsulfonyl)ethylthio)nicotinamide] returned a concentration for a half-maximal effect (EC50) in experiment [1] of 1.01 µM. Moreover, the “MAN rel eff @ 10 μm [RG = 1]” value in experiment [2] is recorded as 1.06. The Change in % in experiment [3] (2.15 mg/kg i.v.) is reported as −34.1%.
